Data reported in the NIST ThermoML archive (doi:10.1021/acs.jced.8b00854).
“And” between values parts separate entries of the source, which are not always exact repeats. Identical values can stand only once. Numbers after ± are expanded uncertainties.

Tests used:
[1] = refractive index (Na D-line) (dimensionless); details: 100 kPa, Liquid, Standard Abbe refractometry
[2] = 100 kPa, Liquid, Vibrating tube method
[3] = xn = mol fraction of the nth substance listed; details: 100 kPa, Liquid, Vibrating tube method, x2 = 0
[4] = refractive index (Na D-line) (dimensionless); xn = mol fraction of the nth substance listed; details: 100 kPa, Liquid, Standard Abbe refractometry, x2 = 0

SMILES | refractive index ([1]; 293.15 K) | refractive index ([1]; 303.15 K) | refractive index ([1]; 313.15 K) | refractive index ([1]; 323.15 K) | refractive index ([1]; 333.15 K) | refractive index ([1]; 343.15 K) | mass density ([2]; 323.15 K) | mass density ([2]; 333.15 K) | mass density ([2]; 343.15 K) | mass density ([3]; 323.15 K) | mass density ([3]; 333.15 K) | mass density ([3]; 343.15 K) | refractive index ([4]; 293.15 K) | refractive index ([4]; 303.15 K) | refractive index ([4]; 313.15 K) | refractive index ([4]; 323.15 K) | refractive index ([4]; 333.15 K) | refractive index ([4]; 343.15 K)
O [water] | 1.3335 ± 0.0016 | 1.3315 ± 0.0016 | 1.3305 ± 0.0016 | 1.329 ± 0.0016 | 1.3275 ± 0.0016 | 1.326 ± 0.0016 | 988.04 ± 2 kg/m3 | 981.56 ± 2 kg/m3 and 988.04 ± 2 kg/m3 | 972.75 ± 2 kg/m3 | – | – | – | – | – | – | – | – | –
O [water] + CCCCCCCCOS(=O)(=O)[O-].CCCCn1cc[n+](C)c1 | – | – | – | – | – | – | – | – | – | 988.04 ± 2 kg/m3 | 981.56 ± 2 kg/m3 | 972.75 ± 2 kg/m3 | 1.3335 ± 0.0016 | 1.3315 ± 0.0016 | 1.3305 ± 0.0016 | 1.329 ± 0.0016 | 1.3275 ± 0.0016 | 1.326 ± 0.0016
O [water] + CCCCCCCC[n+]1ccn(C)c1.F[B-](F)(F)F | – | – | – | – | – | – | – | – | – | 988.04 ± 2 kg/m3 | 988.04 ± 2 kg/m3 | 972.75 ± 2 kg/m3 | 1.3335 ± 0.0016 | 1.3315 ± 0.0016 | 1.3305 ± 0.0016 | 1.329 ± 0.0016 | 1.3275 ± 0.0016 | 1.326 ± 0.0016
O [water] + CCCCCCn1cc[n+](C)c1.F[B-](F)(F)F | – | – | – | – | – | – | – | – | – | 988.04 ± 2 kg/m3 | 981.56 ± 2 kg/m3 | 972.75 ± 2 kg/m3 | 1.3335 ± 0.0016 | 1.3315 ± 0.0016 | 1.3305 ± 0.0016 | 1.329 ± 0.0016 | 1.3275 ± 0.0016 | 1.326 ± 0.0016
O [water] + CCCCn1cc[n+](C)c1.F[B-](F)(F)F | – | – | – | – | – | – | – | – | – | 988.04 ± 2 kg/m3 | 981.56 ± 2 kg/m3 | 972.75 ± 2 kg/m3 | 1.3335 ± 0.0016 | 1.3315 ± 0.0016 | 1.3305 ± 0.0016 | 1.329 ± 0.0016 | 1.3275 ± 0.0016 | 1.326 ± 0.0016
O [water] + CCCCn1cc[n+](C)c1.O=S(=O)([O-])C(F)(F)F | – | – | – | – | – | – | – | – | – | 988.04 ± 2 kg/m3 | 981.56 ± 2 kg/m3 | 972.75 ± 2 kg/m3 | 1.3335 ± 0.0016 | 1.3315 ± 0.0016 | 1.3305 ± 0.0016 | 1.329 ± 0.0016 | 1.3275 ± 0.0016 | 1.326 ± 0.0016
O [water] + CCn1cc[n+](C)c1.F[B-](F)(F)F | – | – | – | – | – | – | – | – | – | 988.04 ± 2 kg/m3 | 981.56 ± 2 kg/m3 | 972.75 ± 2 kg/m3 | 1.3335 ± 0.0016 | 1.3315 ± 0.0016 | 1.3305 ± 0.0016 | 1.329 ± 0.0016 | 1.3275 ± 0.0016 | 1.326 ± 0.0016
O [water] + CCn1cc[n+](C)c1.O=S(=O)([O-])C(F)(F)F | – | – | – | – | – | – | – | – | – | 988.04 ± 2 kg/m3 | 981.56 ± 2 kg/m3 | 972.75 ± 2 kg/m3 | 1.3335 ± 0.0016 | 1.3315 ± 0.0016 | 1.3305 ± 0.0016 | 1.329 ± 0.0016 | 1.3275 ± 0.0016 | 1.326 ± 0.0016
